Measured values taken from patent publication US12018021B2 (UCB Biopharma SRL, priority 2018, dated 2024).

Target: IgE-Tb / FcεRIα-Y131A-AF488 (Homo sapiens, UniProt P01854)
Test: IgE-Tb / FcεRIα-Y131A-AF488 FRET assay (protocol for examples 1 to 233)
Format: binding
Conditions: examples 1 to 233: 5 nM IgE-Tb, 25 nM FcεRIα-Y131A-AF488, incubated 2 hours at room temperature; read-out: Y131A FRET IC50 range
Outline: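 Compounds (top final concentration usually 10 μM, 3-fold, 10 points, 2% DMSO) incubated 2 h at room temperature with IgE-Tb (5 nM) and FcεRIα-Y131A-AF488 (25 nM). Background from 200 nM unlabelled receptor subtracted; FRET ratio 520/495 nm after 330 nm excitation gave percent inhibition, fitted four-parameter for IC50.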

Chain of IgE-Tb / FcεRIα-Y131A-AF488 (P01854 1-427 limits assumed, stated change not applied): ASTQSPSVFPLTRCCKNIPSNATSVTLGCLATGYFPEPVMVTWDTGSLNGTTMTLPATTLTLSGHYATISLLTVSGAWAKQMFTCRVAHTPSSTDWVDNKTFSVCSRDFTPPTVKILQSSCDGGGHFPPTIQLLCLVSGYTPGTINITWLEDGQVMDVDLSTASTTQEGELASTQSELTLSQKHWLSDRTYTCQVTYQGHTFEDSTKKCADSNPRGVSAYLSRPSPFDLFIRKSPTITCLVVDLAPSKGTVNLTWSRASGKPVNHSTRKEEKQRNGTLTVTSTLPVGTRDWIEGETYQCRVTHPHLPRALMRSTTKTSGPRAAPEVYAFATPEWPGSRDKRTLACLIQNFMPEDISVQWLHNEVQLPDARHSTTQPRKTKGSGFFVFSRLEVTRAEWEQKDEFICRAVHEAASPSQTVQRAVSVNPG

Row | SMILES | IC50 [µM]
1 | Cn1nc(C(F)F)cc1Nc1nncn1[C@H]1CCc2sc(NC(=O)C3CC3)c(C(=O)NCC3CC3)c2C1 [Example 229, (5S)-2-(Cyclopropanecarbonylamino)-N-(cyclopropylmethyl)-5-[3-[[5-(difluoromethyl)-2-methyl-pyrazol-3-yl]amino]-1,2,4-triazol-4-yl]-4,5,6,7-tetrahydrobenzothiophene-3-carboxamide] | < 1
2 | CCOC(=O)c1cn([C@H]2CCc3sc(NC(=O)C4CC4)c(C(=O)NCC4CC4)c3C2)cn1 [Example 164, ethyl 1-[(5S)-2-cyclopropaneamido-3-[(cyclopropylmethyl)carbamoyl]-4,5,6,7-tetrahydro-1-benzothiophen-5-yl]-1H-imidazole-4-carboxylate] | < 1
3 | Cc1cn(C)nc1Nc1nncn1[C@H]1CCc2sc(NC(=O)C3CC3)c(C(=O)NCC3CC3)c2C1 [Example 230, (5S)-2-(Cyclopropanecarbonylamino)-N-(cyclopropylmethyl)-5-[3-[(1,4-dimethylpyrazol-3-yl)amino]-1,2,4-triazol-4-yl]-4,5,6,7-tetrahydrobenzothiophene-3-carboxamide] | < 1
4 | CCNC(=O)NC1CCc2sc(NC(=O)C3CC3)c(C(=O)NCC3CC3)c2C1 (stereo not drawn) [Example 157, 2-(Cyclopropanecarbonylamino)-N-(cyclopropylmethyl)-5-(ethylcarbamoylamino)-4,5,6,7-tetrahydrobenzothiophene-3-carboxamide] | 1 to 10
5 | CCNc1c(NC2CCc3sc(NC(=O)C4CC4)c(C(=O)NCC4CC4)c3C2)c(=O)c1=O (stereo not drawn) [Example 120, 2-(Cyclopropanecarbonylamino)-N-(cyclopropylmethyl)-5-[[2-(ethylamino)-3,4-dioxo-cyclobuten-1-yl]amino]-4,5,6,7-tetrahydrobenzothiophene-3-carboxamide] | < 1
6 | CC1CCN(C(=O)c2c(NC(=O)C3CC3)sc3c2CC(NS(C)(=O)=O)CC3)C1 (stereo not drawn) [Example 211, N-[5-(Methanesulfonamido)-3-(3-methylpyrrolidine-1-carbonyl)-4,5,6,7-tetrahydrobenzothiophen-2-yl]cyclopropanecarboxamide] | 1 to 10
7 | O=C(NCC1CC1)c1c(NC(=O)C2CC2)sc2c1C[C@@H](n1cnnc1Nc1ccccn1)CC2 [Example 138, (5S)-2-(Cyclopropanecarbonylamino)-N-(cyclopropylmethyl)-5-[3-(2-pyridylamino)-1,2,4-triazo-4-yl]-4,5,6,7-tetrahydrobenzothiophene-3-carboxamide] | < 1
8 | COC(=O)c1cc(Nc2nncn2[C@H]2CCc3sc(NC(=O)C4CC4)c(C(=O)NCC4CC4)c3C2)n(C)n1 [Example 231, Methyl 5-[[4-[(5S)-2-(cyclopropanecarbonylamino)-3-(cyclopropylmethylcarbamoyl)-4,5,6,7-tetrahydrobenzothiophen-5-yl]-1,2,4-triazol-3-yl]amino]-1-methyl-pyrazole-3-carboxylate] | < 1
9 | CCNC(=S)NC1CCc2sc(NC(=O)C3CC3)c(C(=O)NCC3CC3)c2C1 (stereo not drawn) [Example 142, 2-(Cyclopropanecarbonylamino)-N-(cyclopropylmethyl)-5-(ethylcarbamothioylamino)-4,5,6,7-tetrahydrobenzothiophene-3-carboxamide] | < 1
10 | O=C(Nc1sc2c(c1C(=O)N1CC(F)C1)CCCC2)C1CC1 [Example 76, N-[3-(3-Fluoroazetidine-1-carbonyl)-4,5,6,7-tetrahydrobenzothiophen-2-yl]cyclopropanecarboxamide] | 1 to 10
11 | CCOC(=O)C1CCc2sc(NC(=O)C3CC3)c(C(=O)NCC3CC3)c2C1 (stereo not drawn) [Example 39, Ethyl 2-(cyclopropanecarbonylamino)-3-(cyclopropylmethylcarbamoyl)-4,5,6,7-tetrahydrobenzothiophene-5-carboxylate] | 1 to 10
12 | C[C@H]1CCc2sc(NC(=O)C3CC3)c(C(=O)NCC3CC3)c21 (single isomer, unassigned) [Example 14] | 10 to 50
13 | Cc1cc(NC(=S)N[C@H]2CCc3sc(NC(=O)C4CC4)c(C(=O)NCC4CC4)c3C2)n(C)n1 [Example 131, (5S)-2-(Cyclopropanecarbonylamino)-N-(cyclopropylmethyl)-5-[(2,5-dimethylpyrazol-3-yl)carbamothioylamino]-4,5,6,7-tetrahydrobenzothiophene-3-carboxamide] | < 1
14 | CC(=O)N1CCc2sc(NC(=O)C3CC3)c(C(=O)NCC3CC3)c2C1 [Example 5, 5-Acetyl-2-(cyclopropanecarbonylamino)-N-(cyclopropylmethyl)-6,7-dihydro-4H-thieno[3,2-c]pyridine-3-carboxamide] | 10 to 50
15 | O=C(NCC1CC1)c1c(NC(=O)C2CC2)sc2c1CC(C(=O)NC1Cc3ccccc3C1)CC2 (stereo not drawn) [Example 47, 2-(Cyclopropanecarbonylamino)-N3-(cyclopropylmethyl)-N5-indan-2-yl-4,5,6,7-tetrahydrobenzothiophene-3,5-dicarboxamide] | < 1
16 | CCCC[S+]([O-])c1c(NC(=O)C2CC2)sc2c1CCCC2 (stereo not drawn) [Example 29, N-(3-Butylsulfinyl-4,5,6,7-tetrahydrobenzothiophen-2-yl)cyclopropanecarboxamide] | 1 to 10
17 | CCCNS(=O)(=O)c1c(NC(=O)C2CC2)sc2c1CCCC2 [Example 16, N-[3-(Propylsulfamoyl)-4,5,6,7-tetrahydrobenzothiophen-2-yl]cyclopropanecarboxamide] | < 1
18 | CCNc1nncn1[C@H]1CCc2sc(NC(=O)C3CC3)c(C(=O)NCC3CC3)c2C1 [Example 122, (5S)-2-(cyclopropanecarbonylamino)-N-(cyclopropylmethyl)-5-[3-(ethylamino)-1,2,4-triazol-4-yl]-4,5,6,7-tetrahydrobenzothiophene-3-carboxamide] | < 1
19 | CCn1nc(C)cc1Nc1nncn1[C@H]1CCc2sc(NC(=O)C3CC3)c(C(=O)NCC3CC3)c2C1 [Example 225, (5S)-2-(cyclopropanecarbonylamino)-N-(cyclopropylmethyl)-5-[3-[(2-ethyl-5-methyl-pyrazol-3-yl)amino]-1,2,4-triazol-4-yl]-4,5,6,7-tetrahydrobenzothiophene-3-carboxamide] | < 1
20 | O=C(NCC1CC1)c1c(NC(=O)C2CC2)sc2c1C[C@@H](Nc1nccn1-c1cccnc1)CC2 [Example 170, (5S)-2-(Cyclopropanecarbonylamino)-N-(cyclopropylmethyl)-5-[[1-(3-pyridyl)imidazol-2-yl]amino]-4,5,6,7-tetrahydrobenzothiophene-3-carboxamide] | 1 to 10
21 | Cn1nc(C(F)(F)F)cc1Nc1nccn1[C@H]1CCc2sc(NC(=O)C3CC3)c(C(=O)NCC3CC3)c2C1 [Example 232, (5S)-2-(Cyclopropanecarbonylamino)-N-(cyclopropylmethyl)-5-[2-[[2-methyl-5-(trifluoromethyl)pyrazol-3-yl]amino]imidazol-1-yl]-4,5,6,7-tetrahydrobenzothiophene-3-carboxamide] | < 1
22 | Cc1ccc(N2C(=O)CN=C2NC2CCc3sc(NC(=O)C4CC4)c(C(=O)NCC4CC4)c3C2)cc1 (stereo not drawn) [Example 194, 2-(Cyclopropanecarbonylamino)-N-(cyclopropylmethyl)-5-[[5-oxo-1-(p-tolyl)-4H-imidazol-2-yl]amino]-4,5,6,7-tetrahydrobenzothiophene-3-carboxamide] | 1 to 10
23 | Cc1ccc(NC(=N[N+](=O)[O-])NC2CCc3sc(NC(=O)C4CC4)c(C(=O)NCC4CC4)c3C2)cc1 (stereo not drawn) [Example 126, 2-(cyclopropanecarbonylamino)-N-(cyclopropylmethyl)-5-[[N′-nitro-N-(p-tolyl)carbamimidoyl]amino]-4,5,6,7-tetrahydrobenzothiophene-3-carboxamide] | < 1
24 | O=C(NCC1CC1)c1c(NC(=O)C2CC2)sc2c1CC(Nc1n[nH]c(-c3cccnc3)n1)CC2 (stereo not drawn) [Example 180, 2-(Cyclopropanecarbonylamino)-N-(cyclopropylmethyl)-5-[[5-(3-pyridyl)-1H-1,2,4-triazol-3-yl]amino]-4,5,6,7-tetrahydrobenzothiophene-3-carboxamide] | < 1
25 | Cc1cc(Nc2nncn2[C@@H]2CCc3sc(NC(=O)C4CC4)c(C(=O)NCC4CC4)c3C2)n(C)n1 [Example 162, (5R)-2-(Cyclopropanecarbonylamino)-N-(cyclopropylmethyl)-5-[3-[(2,5-dimethylpyrazol-3-yl)amino]-1,2,4-triazol-4-yl]-4,5,6,7-tetrahydrobenzothiophene-3-carboxamide] | < 1
26 | CS(=O)(=O)N1CCCc2c1sc(NC(=O)C1CC1)c2C(=O)NCC1CC1 [Example 6, 2-(Cyclopropanecarbonylamino)-N-(cyclopropylmethyl)-7-methylsulfonyl-5,6-dihydro-4H-thieno[2,3-b]pyridine-3-carboxamide] | 1 to 10
27 | O=C(NCC1CC1)c1c(NC(=O)C2CC2)sc2c1CC(C(=O)Nc1nccs1)CC2 (stereo not drawn) [Example 50, 2-(Cyclopropanecarbonylamino)-N3-(cyclopropylmethyl)-N5-thiazol-2-yl-4,5,6,7-tetrahydrobenzothiophene-3,5-dicarboxamide] | < 1
28 | CC(=O)Nc1nccn1[C@H]1CCc2sc(NC(=O)C3CC3)c(C(=O)NCC3CC3)c2C1 [Example 139, (5S)-5-(2-Acetamidoimidazol-1-yl)-2-(cyclopropanecarbonylamino)-N-(cyclopropylmethyl)-4,5,6,7-tetrahydrobenzothiophene-3-carboxamide] | < 1
29 | CC(C)CNS(=O)(=O)c1c(NC(=O)C2CC2)sc2c1CCCC2 [Example 17, N-[3-(Isobutylsulfamoyl)-4,5,6,7-tetrahydrobenzothiophen-2-yl]cyclopropanecarboxamide] | < 1
30 | CCNc1nnc(C(F)(F)F)n1C1CCc2sc(NC(=O)C3CC3)c(C(=O)NCC3CC3)c2C1 (stereo not drawn) [Example 202, 2-(Cyclopropanecarbonylamino)-N-(cyclopropylmethyl)-5-[3-(ethylamino)-5-(trifluoromethyl)-1,2,4-triazol-4-yl]-4,5,6,7-tetrahydrobenzothiophene-3-carboxamide] | 1 to 10
